From the METLIN SMRT retention time set (Domingo-Almenara et al. 2019)

Experiment: gradient 5% acetonitrile 3 min, to 50% in 2 min, to 85% in 15 min, held 3 min, 100 µL/min
Details: column: Zorbax Extend-C18 2.1 x 50 mm; eluents: water / acetonitrile, 0.1% formic acid
Summary of the method: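 Mixtures of ~100 pure standards were chromatographed on a Zorbax Extend-C18 column (2.1 × 50 mm, 1.8 μm) at 100 μL/min using water and acetonitrile, each with 0.1% formic acid. Detection used a quadrupole time-of-flight mass spectrometer in positive and negative ionization mode, and data collection spanned 3 months. Retention time was obtained from adduct peaks picked computationally and each checked manually.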

Row | RP-LC retention time [s] | Structure (SMILES)
1 | 810 | Cc1nc(-c2noc(-c3ccccc3)n2)cn1CC(=O)NCc1ccccc1F
2 | 836 | O=C(NCCC1=CCCCC1)c1ccc(CN2CCN(C3CCCC3)C(=O)C2=O)cc1
3 | 586 | CN1CCC(N2CCN(c3ncccc3-c3nnc(-c4ccc(Cl)cc4)o3)CC2)CC1
4 | 622 | Cc1nnc(-c2ccc(S(=O)(=O)N3CCN(C4CCCCC4)CC3)o2)o1
5 | 627 | CC(NC(=O)c1ccco1)c1nc2ccccc2n1CC(=O)N1CCCCC1 (configuration not stated)
6 | 998 | CCN1C(=O)COc2ccc(-c3noc(-c4cccc5[nH]ccc45)n3)cc21
7 | 543 | CN(C)C(=O)c1cc2c(s1)CCC(C(=O)NCCc1cccnc1)C2 (configuration not stated)
8 | 849 | COc1cc(NC(=O)Cn2c(=O)n(-c3ccc(F)cc3)c3ncccc32)cc(OC)c1
9 | 1090 | COC(=O)C1=C(C)N(C2CCCCC2)C(=O)C1(NC(=O)c1ccccc1OC)C(F)(F)F (configuration not stated)
10 | 595 | O=C(c1cccc(Br)c1)N1CCc2nc[nH]c2C1
11 | 1100 | Cc1nc(-c2cc(S(=O)(=O)Nc3ccc(F)c(F)c3)c(C)s2)sc1C
12 | 963 | CCCCOc1ccc(-c2nc3ccc(Br)cc3c(C(=O)O)c2C)cc1
13 | 763 | CC(=O)Nc1ccc(SCc2nnc(-c3ccccc3)o2)cc1
14 | 998 | Cc1ccc(C)c(NC(=O)C2CCN(S(C)(=O)=O)c3cc(C)ccc3O2)c1 (configuration not stated)
15 | 837 | COc1ccc(-c2nnc(-c3cc(S(=O)(=O)NC(C)(C)CO)ccc3Cl)o2)cc1
16 | 614 | CCOCC(=O)N1CCC2(CC1)CC(O)(CC)CCO2 (configuration not stated)
17 | 800 | COc1ccc(-c2nnc(COc3ccc(NC(=O)c4cnccn4)cc3)o2)cc1
18 | 928 | COc1ccc(-c2noc(C3CCCN3C(=O)Cc3ccsc3)n2)cc1 (configuration not stated)
19 | 794 | O=C(NCc1ccccc1F)c1cc2n(n1)CCCC2
20 | 877 | COc1ccccc1-c1noc(C2CCCN2C(=O)Nc2ccc(C)cc2)n1 (configuration not stated)
21 | 901 | CCc1cccc(NC(=O)N2CCc3nc(-c4ccccc4)ncc3C2)c1
22 | 638 | Cc1noc(C)c1CC(=O)NCC12CCC=C1N(C)C(=O)CC2 (configuration not stated)

Row | RP-LC retention time [s] | Structure (SMILES)
23 | 999 | CCc1cc(C(=O)N2CCCC2c2ccc(C)cc2)no1 (configuration not stated)
24 | 701 | Fc1ccc(-c2noc(-c3nnc(NCCN4CCOCC4)c4ccccc34)n2)cc1
25 | 722 | NS(=O)(=O)c1ccc(NC(=O)CC2Sc3ccc(C(F)(F)F)cc3NC2=O)cc1 (configuration not stated)
26 | 630 | COc1ccc(NC(=O)N2CC(N(C3CCOCC3)S(C)(=O)=O)C2)cc1OC
27 | 747 | CCN1CCN(c2ccc(NC(=O)c3cc(Cl)ccc3F)cn2)C1=O
28 | 608 | O=C([C@@H]1C[C@H](F)CN1C(=O)NCCc1ccccc1)N1CCOCC1
29 | 700 | CCCNC(=O)C1CCCN(c2ccc(SCC(=O)Nc3cc(F)ccc3C)nn2)C1 (configuration not stated)
30 | 656 | CCN(CC)S(=O)(=O)c1cccc(-c2cn3ccc(C)cc3n2)c1
31 | 710 | CCc1nnc2c(=O)n(CC(=O)NCc3cccc(F)c3)c3cccnc3n12
32 | 832 | CCOC(=O)c1cccc(Nc2nc(-c3cccnc3)nc3ccccc23)c1
33 | 698 | O=C(NC1CCCCCC1)c1cc(NS(=O)(=O)c2ccc(Cl)cc2)cnc1N1CCNCC1
34 | 598 | CCN1CCN(CCNC(=O)c2ccc(-c3ccc4c(c3)CCN4C(C)=O)cc2)CC1
35 | 723 | Cc1nc(-c2csc(S(=O)(=O)N3CCC(C(=O)NC4CC4)CC3)c2)no1
36 | 1170 | CCc1sc(NC(=O)c2cc(Cl)c(NC(C)=O)cc2OC)nc1-c1ccccc1
37 | 1280 | CCOc1ccc(C(=O)n2nc(C)c(S(=O)(=O)N3CCC(C)CC3)c2C)cc1
38 | 1210 | Cc1nc2cc(-c3noc(-c4ccc(C(F)(F)F)cc4)n3)ccc2o1
39 | 852 | Cc1ccc(-c2csc(NC(=O)CN3C(=O)c4ccccc4C3=O)n2)o1
40 | 769 | CCn1nccc1C(=O)N1CCCN(C2=NS(=O)(=O)C(c3ccc(C)cc3)=C2C)CC1
41 | 1080 | COC(=O)c1ccc(NC(=O)N2CCN(c3nc4ccccc4nc3C(F)(F)F)CC2)cc1
42 | 767 | Cc1nnc(N2CCCC(C(=O)Nc3ccccc3Cl)C2)c2nn(-c3ccccc3)c(C)c12 (configuration not stated)
43 | 1140 | O=C(Cn1cccc1-c1nc(-c2ccc3c(c2)OCO3)no1)Nc1ccc2c(c1)CCC2
44 | 716 | CCCC(NC(=O)c1ccc(C)cc1)C(=O)Nc1nc2ccccc2[nH]1 (configuration not stated)

Row | RP-LC retention time [s] | Structure (SMILES)
45 | 730 | CCOC(=O)COc1cc(-c2ccc(F)cc2)nc2ccc(NC(=O)COC)cc12
46 | 886 | Cc1ccc(C)c(-n2ccn(Cc3nc(-c4ccccc4)no3)c(=O)c2=O)c1
47 | 800 | CCn1ncn2cc(S(=O)(=O)NCc3ccccc3)cc2c1=O
48 | 733 | Cc1ccccc1Nc1c(-c2ccccc2)nc2c(C)cccn12
49 | 1310 | COc1ccc(-c2noc(Cc3nc(-c4ccc(C)c(C)c4)cs3)n2)cc1
50 | 619 | CCOC(=O)N1CCC(NC(=O)CCC2CCN(c3cc(NC4CC4)ncn3)CC2)CC1
51 | 712 | Cn1cc(C(=O)N2CCC(c3noc(-c4ccccc4)n3)C2)cn1 (configuration not stated)
52 | 731 | Cc1nc(-c2noc(-c3ccncc3)n2)cn1CC(=O)Nc1ccc(Cl)cc1
53 | 788 | COc1ccc2c(CCNC(=O)c3ccccc3OC)c[nH]c2c1
54 | 911 | Cc1cccc(CCNC(=O)Cc2csc3nc(-c4ccc(C)c(C)c4)cn23)c1
55 | 700 | COc1ccc(-c2nc(-c3ccc4c(c3)nnn4CCN(C)C)no2)c(C)c1
56 | 607 | CCOc1ccc2ncc(C#N)c(Nc3cc(OC)c(OC)c(OC)c3)c2c1
57 | 890 | Cc1ccccc1CNC(=O)C1(C)CCCN(C(=O)NCc2ccc(F)cc2)C1 (configuration not stated)
58 | 659 | CC(C)c1nnc(C2CCN(C(=O)c3ccc(S(=O)(=O)N4CCOCC4)cc3)CC2)o1
59 | 510 | Cc1nc(-c2cnccn2)nc2c1CCC(=O)N2Cc1ccncc1
60 | 1060 | CCOC(=O)CCCn1nc(C)c2nn(-c3ccccc3)c(-n3cccc3)c2c1=O
61 | 639 | Cc1noc(C2CCCCN2Cc2nc(-c3ccccn3)no2)n1 (configuration not stated)
62 | 609 | CC(C)CCC(=O)N1CCc2nc(N3CCN(C)CC3)sc2C1
63 | 1130 | COc1ccccc1NC(=O)N1CC(C)Oc2ccc(C)cc21 (configuration not stated)
64 | 628 | Cc1nnc(CNC(=O)C(=O)Nc2ccc(Cl)cn2)o1
65 | 946 | COC(=O)c1sc2ccccc2c1NC(=O)c1ccc(S(=O)(=O)N2CCCC2)cc1
66 | 1080 | CC(C)c1cccc(NC(=O)Cn2c(=O)cc(-c3nc(C4CC4)no3)c3ccccc32)c1

Row | Structure (SMILES) | RP-LC retention time [s]
67 | Cc1c(CCN)ccc2c1[nH]c1ccccc12 | 697
